The record followed here is patent US20030170326A1, “Bioavailability enchancing activity of Zingiber officinale Linn and its extracts/fractions thereof” (COUNCIL OF SCIENTIFIC AND INDUSTRIAL RESEARCH, priority 2001, published 2003).

Assay in the first series: not given
The note with it: rat, in vivo.
With `C=CC[C@@H]1/C=C(\C)C[C@H](C)C[C@H](OC)[C@H]2O[C@@](O)(C(=O)C(=O)N3CCCC[C@H]3C(=O)O[C@H](/C(C)=C/[C@@H]3CC[C@@H](O)[C@H](OC)C3)[C@H](C)[C@@H](O)CC1=O)[C@H](C)C[C@@H]2OC` [Tacrolimus], the “% Enhancement in bioavailability, Piperine + BE from Zingiber officinale” value is 117%. On the same count and under the same terms, next, `CN1C(C(=O)Nc2ccccn2)=C(O)c2ccccc2S1(=O)=O` [Piroxicam]: 134%. The same measure, in the same setting: then `C=CC1=C(C(=O)O)N2C(=O)[C@@H](NC(=O)/C(=N\OCC(=O)O)c3csc(N)n3)[C@H]2SC1` [Cefixime], with “Nil”; and `NNC(=O)c1ccncc1` [Isoniazid], with “Negligible”.

Turning to `CCn1cc(C(=O)O)c(=O)c2cc(F)c(N3CCNCC3)cc21` [Norfloxacin], the “% Enhancement in bioavailability, Piperine + BE from Zingiber officinale” value is “Negligible”. Still for that read-out and setting: next, `CC[C@H]1OC(=O)[C@H](C)[C@@H](O[C@H]2C[C@@](C)(OC)[C@@H](O)[C@H](C)O2)[C@H](C)[C@@H](O[C@@H]2O[C@H](C)C[C@H](N(C)C)[C@H]2O)[C@](C)(O)C[C@@H](C)/C(=N\OCOCCOC)[C@H](C)[C@@H](O)[C@]1(C)O` [Roxythromycin]: 93%. For `CC1COc2c(N3CCN(C)CC3)c(F)cc3c(=O)c(C(=O)O)cn1c23` (centres unmarked) [O-floxacin, Ofloxacin], the “% Enhancement in bioavailability, Piperine + BE from Zingiber officinale” value is given as 67%. For `CCOC(=O)C1=C(COCCN)NC(C)=C(C(=O)OC)C1c1ccccc1Cl` (centres unmarked) [Amlodipine], the “% Enhancement in bioavailability, Piperine + BE from Zingiber officinale” value is reported as 95%. In the case of `NC(=O)c1cnccn1` [Pyrazinamide], the “% Enhancement in bioavailability, Piperine + BE from Zingiber officinale” value was “Nil”. The same measure, in the same setting: next, `CNC(=C[N+](=O)[O-])NCCSCc1ccc(CN(C)C)o1` [Ranitidine]: 165%. Same read-out and setting: next, `Cc1onc(-c2ccccc2Cl)c1C(=O)N[C@@H]1C(=O)N2[C@@H]1SC(C)(C)[C@@H]2C(=O)O` [Cloxacillin]: 90%. For the compound `NCC[C@H](O)C(=O)N[C@@H]1C[C@H](N)[C@@H](O[C@H]2O[C@H](CN)[C@@H](O)[C@H](O)[C@H]2O)[C@H](O)[C@H]1O[C@H]1O[C@H](CO)[C@@H](O)[C@H](N)[C@H]1O` [Amikacin], the “% Enhancement in bioavailability, Piperine + BE from Zingiber officinale” value is “Nil”.

On to `O=C(O)Cc1ccccc1Nc1c(Cl)cccc1Cl` [Diclofenac], for which the “% Enhancement in bioavailability, Piperine + BE from Zingiber officinale” value was determined as 140%. The same measure, in the same setting: then `CC1=C(C(=O)O)N2C(=O)[C@@H](NC(=O)[C@H](N)c3ccc(O)cc3)[C@H]2SC1` [Cefadroxil], with 65%; and `N[C@@H]1CON=C1O` [Cycloserine], with 70%; and `Nc1nc2c(ncn2COCCO)c(=O)[nH]1` [Acyclovir], with 85%. On the same count and under the same terms, next, `COc1ccc2[nH]c([S+]([O-])Cc3ncc(C)c(OC)c3C)nc2c1` (centres unmarked) [Omeprazole]: “Nil”; `CC[C@H]1OC(=O)[C@H](C)[C@@H](O[C@H]2C[C@@](C)(OC)[C@@H](O)[C@H](C)O2)[C@H](C)[C@@H](O[C@@H]2O[C@H](C)C[C@H](N(C)C)[C@H]2O)[C@](C)(O)C[C@@H](C)C(=O)[C@H](C)[C@@H](O)[C@]1(C)O` [Erythromycin]: 105%; `CC[C@H]1OC(=O)[C@H](C)[C@@H](O[C@H]2C[C@@](C)(OC)[C@@H](O)[C@H](C)O2)[C@H](C)[C@@H](O[C@@H]2O[C@H](C)C[C@H](N(C)C)[C@H]2O)[C@](C)(O)C[C@@H](C)CN(C)[C@H](C)[C@@H](O)[C@]1(C)O` [Azithromycin]: 85%.

Consider `CC[C@@H](CO)NCCN[C@@H](CC)CO` [Ethambutol], for which the “% Enhancement in bioavailability, Piperine + BE from Zingiber officinale” value is on record as “Nil”.

The nature of the next series: Bioavailability enhancement of a drug/nutraceutical/herbal product given with bioenhancer (BE) to fasted rats; plasma drug level by HPLC, 0-24 hrs. The note with it: drug + BE from Zingiber officinale (extract 30 mg/kg or fraction No 1 15 mg/kg).
Consider `CN(Cc1cc(Br)cc(Br)c1N)C1CCCCC1` [Bromhexine], for which the “% Enhancement in bioavailability, BE from Zingiber officinale” value turned out to be 46%.

The same series, now with this note: drug + piperine 8 mg/kg + BE from Zingiber officinale.
As for `CC(=O)N1CCN(c2ccc(OCC3COC(Cn4ccnc4)(c4ccc(Cl)cc4Cl)O3)cc2)CC1` (centres unmarked) [Ketoconazole], the “% Enhancement in bioavailability, Piperine + BE from Zingiber officinale” value was 100%. In the case of `CN(Cc1cnc2nc(N)nc(N)c2n1)c1ccc(C(=O)N[C@@H](CCC(=O)O)C(=O)O)cc1` [Methotrexate], the “% Enhancement in bioavailability, Piperine + BE from Zingiber officinale” value worked out at 49%. Still for that read-out and setting: next, `CN(Cc1cc(Br)cc(Br)c1N)C1CCCCC1` [Bromhexine]: 75%.

In the case of `CC(C)NCC(O)COc1cccc2ccccc12` (centres unmarked) [Propranolol], the “% Enhancement in bioavailability, Piperine + BE from Zingiber officinale” value worked out at 104%.

Turning to `Cc1cn([C@H]2C[C@H](N=[N+]=[N-])[C@@H](CO)O2)c(=O)[nH]c1=O` [Zidovudine], the “% Enhancement in bioavailability, Piperine + BE from Zingiber officinale” value is 126%.

For `CS(=O)(=O)Nc1ccc([N+](=O)[O-])cc1Oc1ccccc1` [Nimesulide], the “% Enhancement in bioavailability, Piperine + BE from Zingiber officinale” value is 165%. On the same count and under the same terms, then `Cn1c(=O)c2[nH]cnc2n(C)c1=O` [Theophylline], with 80%; and `Cc1nnc2n1-c1ccc(Cl)cc1C(c1ccccc1)=NC2` [Aiprazolam, Alprazolam], with 70%; and `CO[C@H]1/C=C/O[C@@]2(C)Oc3c(C)c(O)c4c(O)c(c(/C=N/N5CCN(C)CC5)c(O)c4c3C2=O)NC(=O)/C(C)=C\C=C\[C@H](C)[C@H](O)[C@@H](C)[C@@H](O)[C@@H](C)[C@H](OC(C)=O)[C@@H]1C` [Rifampicin], with 98%. The same measure, in the same setting: then `COc1cccc2c1C(=O)c1c(O)c3c(c(O)c1C2=O)C[C@@](O)(C(=O)CO)C[C@@H]3O[C@H]1C[C@H](N)[C@H](O)[C@H](C)O1` [Doxorubicin], with 75%; and `CCc1cc(C(N)=S)ccn1` [Ethionamide], with 48%; and `Nc1ccc(S(=O)(=O)c2ccc(N)cc2)cc1` [Dapsone], with 55%.

For `CN/C(=N/CCSCc1nc[nH]c1C)NC#N` [Cimetidine], the “% Enhancement in bioavailability, Piperine + BE from Zingiber officinale” value is recorded as 76%. The same measure, in the same setting: next, `CC(C)(C)NCC(O)c1ccc(O)c(CO)c1` (centres unmarked) [Salbutamol]: 92%; `CC1(C)S[C@@H]2[C@H](NC(=O)[C@H](N)c3ccc(O)cc3)C(=O)N2[C@H]1C(=O)O` [Amoxycillin]: 90%. `O=c1[nH]cc(F)c(=O)[nH]1` [5-Fluorouracil]: the “% Enhancement in bioavailability, Piperine + BE from Zingiber officinale” value was found to be 93%. The same measure, in the same setting: then `NCCCC[C@H](N[C@@H](CCc1ccccc1)C(=O)O)C(=O)N1CCC[C@H]1C(=O)O` [Lisinopril], with 100%.
